Assay results published in ChEMBL document CHEMBL1212745, “Structure of the heme biosynthetic Pseudomonas aeruginosa porphobilinogen synthase in complex with the antibiotic alaremycin” (Antimicrob Agents Chemother, 2010).
Values after ≈ are worked out from the molar mass of the structure shown. Active and inactive are the calls of the source. The calls are words filed in the database; no cut-off is given here.

Columns and labels:
Escherichia coli [1] = assay: Antimicrobial activity against Escherichia coli CSA1 at =< 40 mg/ml up to 24 hrs by microdilution method in presence of 5-aminolaevulinic acid; format: functional, organism-based
Pseudomonas aeruginosa = assay: Antimicrobial activity against Pseudomonas aeruginosa PAO1 up to 24 hrs by microdilution method; format: functional; conditions: PAO1, 24 h
Escherichia coli [2] = assay: Inhibition of Escherichia coli CSA1 porphobilinogen synthase assessed as enzyme activity at 10 mM relative to control; design: scale not given: the % may be the effect or the level left
Methanosarcina barkeri [3] = assay: Ratio of Kcat to Km for Methanosarcina barkeri porphobilinogen synthase
[4] = target: T1, Delta-aminolevulinic acid dehydratase (Bacillus subtilis) (UniProt P30950); assay: Inhibition of Bacillus subtilis JH642 porphobilinogen synthase assessed as enzyme activity at 10 mM relative to control; design: scale not given: the % may be the effect or the level left
T1 sequence (whole entry): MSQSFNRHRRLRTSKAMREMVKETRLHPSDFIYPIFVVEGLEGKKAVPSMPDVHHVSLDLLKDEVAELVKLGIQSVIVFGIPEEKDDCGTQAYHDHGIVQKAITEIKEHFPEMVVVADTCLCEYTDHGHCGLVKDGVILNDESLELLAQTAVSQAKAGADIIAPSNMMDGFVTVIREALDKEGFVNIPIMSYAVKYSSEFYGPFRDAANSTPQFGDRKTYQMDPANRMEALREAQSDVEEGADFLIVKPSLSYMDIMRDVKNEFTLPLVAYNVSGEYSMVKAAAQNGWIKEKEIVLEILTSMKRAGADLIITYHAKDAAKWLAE

[5] = target: T2, Delta-aminolevulinic acid dehydratase (Streptomyces coelicolor) (UniProt P54919); assay: Inhibition of Streptomyces coelicolor DMS 40233 porphobilinogen synthase assessed as enzyme activity at 5 mM relative to control; design: scale not given: the % may be the effect or the level left
T2 sequence (whole entry): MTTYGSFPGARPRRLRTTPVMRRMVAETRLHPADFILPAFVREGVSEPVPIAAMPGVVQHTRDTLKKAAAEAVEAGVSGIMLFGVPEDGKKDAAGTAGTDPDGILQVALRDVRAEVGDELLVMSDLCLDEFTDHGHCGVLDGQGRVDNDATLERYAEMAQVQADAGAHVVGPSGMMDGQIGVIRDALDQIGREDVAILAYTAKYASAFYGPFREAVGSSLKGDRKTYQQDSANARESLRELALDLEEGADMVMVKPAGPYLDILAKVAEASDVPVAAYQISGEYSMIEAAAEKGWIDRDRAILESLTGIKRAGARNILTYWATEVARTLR

[6] = system: Pseudomonas aeruginosa PAO1; assay: Inhibition of Pseudomonas aeruginosa PAO1 porphobilinogen synthase assessed as enzyme activity at 5 mM relative to control; design: scale not given: the % may be the effect or the level left
[7] = target: T3, Delta-aminolevulinic acid dehydratase (Streptomyces avermitilis) (UniProt Q82E74); assay: Inhibition of Streptomyces avermitilis DSM 46492 porphobilinogen synthase assessed as enzyme activity at 10 mM relative to control; design: scale not given: the % may be the effect or the level left
T3 sequence (whole entry): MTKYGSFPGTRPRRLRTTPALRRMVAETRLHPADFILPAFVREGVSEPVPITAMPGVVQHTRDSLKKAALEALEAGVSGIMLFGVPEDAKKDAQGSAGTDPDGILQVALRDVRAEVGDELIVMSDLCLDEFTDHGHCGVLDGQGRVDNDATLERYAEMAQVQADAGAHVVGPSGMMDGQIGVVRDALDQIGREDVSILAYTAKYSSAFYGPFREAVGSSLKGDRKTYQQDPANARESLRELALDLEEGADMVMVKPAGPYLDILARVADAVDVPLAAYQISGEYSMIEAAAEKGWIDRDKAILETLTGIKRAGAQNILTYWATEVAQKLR

[8] = target: T3, Delta-aminolevulinic acid dehydratase (Streptomyces avermitilis); assay: Inhibition of Streptomyces avermitilis DSM 46492 porphobilinogen synthase assessed as enzyme activity at 5 mM relative to control; design: scale not given: the % may be the effect or the level left
Escherichia coli [9] = assay: Inhibition of Escherichia coli CSA1 porphobilinogen synthase assessed as enzyme activity at 5 mM relative to control; design: scale not given: the % may be the effect or the level left
[10] = system: Pseudomonas aeruginosa PAO1; assay: Inhibition of Pseudomonas aeruginosa PAO1 porphobilinogen synthase assessed as enzyme activity at 10 mM relative to control; design: scale not given: the % may be the effect or the level left
[11] = Inhibition of Pseudomonas aeruginosa PAO1 porphobilinogen synthase by Lineweaver-Burke plot analysis
Priestia megaterium = assay: Antimicrobial activity against Bacillus megaterium DSM319 up to 24 hrs by microdilution method; format: functional; conditions: DSM 319, 24 h
Methanosarcina barkeri [12] = assay: Activity at Methanosarcina barkeri porphobilinogen synthase
Escherichia coli [13] = assay: Antimicrobial activity against Escherichia coli CSA1 up to 24 hrs by microdilution method; format: functional; conditions: CSA1, 24 h
Streptomyces avermitilis = assay: Antimicrobial activity against Streptomyces avermitilis DSM 46492 up to 24 hrs by microdilution method; format: functional; conditions: DSM 46492, 24 h
[14] = system: Bacillus megaterium DSM 319; assay: Inhibition of Bacillus megaterium DSM319 porphobilinogen synthase assessed as enzyme activity at 5 mM relative to control; design: scale not given: the % may be the effect or the level left
[15] = target: T1, Delta-aminolevulinic acid dehydratase (Bacillus subtilis); assay: Inhibition of Bacillus subtilis JH642 porphobilinogen synthase assessed as enzyme activity at 5 mM relative to control; design: scale not given: the % may be the effect or the level left
Escherichia coli [16] = assay: Antimicrobial activity against Escherichia coli CSA1 at =< 40 mg/ml up to 24 hrs by microdilution method in presence of 5-aminolaevulinic acid and heme; format: functional, organism-based
[17] = target: T2, Delta-aminolevulinic acid dehydratase (Streptomyces coelicolor); assay: Inhibition of Streptomyces coelicolor DMS 40233 porphobilinogen synthase assessed as enzyme activity at 10 mM relative to control; design: scale not given: the % may be the effect or the level left
[18] = system: Escherichia coli str. K-12 substr. DH10B; assay: Inhibition of Escherichia coli porphobilinogen synthase assessed as enzyme activity at 5 mM relative to control; design: scale not given: the % may be the effect or the level left
[19] = Antimicrobial activity against Streptomyces sp. A012304 up to 24 hrs by microdilution method; format: functional; conditions: Streptomyces sp. A012304, 24 h
[20] = system: Bacillus megaterium DSM 319; assay: Inhibition of Bacillus megaterium DSM319 porphobilinogen synthase assessed as enzyme activity at 10 mM relative to control; design: scale not given: the % may be the effect or the level left
Escherichia coli [21] = assay: Antimicrobial activity against Escherichia coli CSA1 at =< 40 mg/ml up to 24 hrs by microdilution method in presence of heme and absence of 5-aminolaevulinic acid; format: functional, organism-based
Escherichia coli [22] = assay: Antimicrobial activity against Escherichia coli CSA1 at =< 40 mg/ml up to 24 hrs by microdilution method in absence of 5-aminolaevulinic acid; format: functional, organism-based
Streptomyces sp. A012304 [23] = assay: Inhibition of Streptomyces sp. A012304 porphobilinogen synthase assessed as enzyme activity at 5 mM relative to control; design: scale not given: the % may be the effect or the level left
[24] = system: Pseudomonas aeruginosa PAO1; assay: Ratio of Kcat to Km for Pseudomonas aeruginosa PAO1 porphobilinogen synthase
Escherichia coli [25] = assay: Antimicrobial activity against Escherichia coli DH10B up to 24 hrs by microdilution method; format: functional; conditions: K-12 DH10B
[26] = Inhibition of Methanosarcina barkeri porphobilinogen synthase after 60 mins by spectrophotometry
[27] = system: Escherichia coli str. K-12 substr. DH10B; assay: Inhibition of Escherichia coli porphobilinogen synthase assessed as enzyme activity at 10 mM relative to control; design: scale not given: the % may be the effect or the level left
[28] = system: Pseudomonas aeruginosa PAO1; assay: Activity at Pseudomonas aeruginosa PAO1 porphobilinogen synthase
Streptomyces sp. A012304 [29] = assay: Inhibition of Streptomyces sp. A012304 porphobilinogen synthase assessed as enzyme activity at 10 mM relative to control; design: scale not given: the % may be the effect or the level left
[30] = Inhibition of Pseudomonas aeruginosa PAO1 porphobilinogen synthase after 60 mins by spectrophotometry
Streptomyces coelicolor = assay: Antimicrobial activity against Streptomyces coelicolor DMS 40233 up to 24 hrs by microdilution method; format: functional; conditions: DMS 40233, 24 h
[31] = Inhibition of Methanosarcina barkeri porphobilinogen synthase by Lineweaver-Burke plot analysis
Bacillus subtilis = assay: Antimicrobial activity against Bacillus subtilis JH642 up to 24 hrs by microdilution method; format: functional; conditions: JH642, 24 h

MIC (Pseudomonas aeruginosa): 12 mM (≈ 2220 µg/mL) | Activity (Escherichia coli [2]): < 1% | kcat/Km (Methanosarcina barkeri [3]): 170 M⁻¹ s⁻¹ | Activity [4]: 30% | Activity [5]: 77% | Activity [6]: 92% | Activity [7]: < 1% | Activity [8]: 68% | Activity (Escherichia coli [9]): 36% | Activity [10]: 25% | Ki [11]: 1330 µM | MIC (Priestia megaterium): 4 mM (≈ 741 µg/mL) | Km (Methanosarcina barkeri [12]): 0.07 mM | kcat (Methanosarcina barkeri [12]): 0.012 s⁻¹ | MIC (Escherichia coli [13]): 10 mM (≈ 1850 µg/mL) | MIC (Streptomyces avermitilis): 8 mM (≈ 1480 µg/mL) | Activity [14]: 3% | Activity [15]: 61% | Activity [17]: 22% | Activity [18]: 30% | MIC [19]: > 20 mM | Activity [20]: < 1% | Activity (Streptomyces sp. A012304 [23]): 90% | kcat/Km [24]: 50300 M⁻¹ s⁻¹ | MIC (Escherichia coli [25]): 4 mM (≈ 741 µg/mL) | IC50 [26]: 2200 µM | Activity [27]: < 1% | Km [28]: 0.32 mM | kcat [28]: 16.1 s⁻¹ | Activity (Streptomyces sp. A012304 [29]): 79% | IC50 [30]: 2100 µM | MIC (Streptomyces coelicolor): 8 mM (≈ 1480 µg/mL) | Ki [31]: 1510 µM | MIC (Bacillus subtilis): 14 mM (≈ 2590 µg/mL)
SMILES: C=C(NC(C)=O)C(=O)CCC(=O)O [ALAREMYCIN]
Activity (Escherichia coli [1]): Active | Activity (Escherichia coli [16]): inactive | Activity (Escherichia coli [21]): inactive | Activity (Escherichia coli [22]): Active
